Measured values: article PMC6112376, “Comprehensive Analyses and Prioritization of Tox21 10K Chemicals Affecting Mitochondrial Function by in-Depth Mechanistic Studies” (Environmental Health Perspectives, 2018)
Where two headings read alike, the source gives them in different places.

Tests used:
rat primary hepatocytes [1] = assay: MMP assay in rat primary hepatocytes; details: Rattus norvegicus, Hepatocyte
HepG2 cells [2] = assay: ROS-Glo hydrogen peroxide (ROS) assay; assay type: cell-based, human
[3] = system: HeLa cells expressing YFP-Parkin; assay: Parkin translocation assay; assay type: cell-based, human
[4] = system: mitochondrial respiratory chain complex V; assay type: biochemical, rat
rat primary hepatocytes [5] = system: rat primary hepatocytes
HepG2 cells [6] = details: cited from earlier work
[7] = system: Caenorhabditis elegans (Bristol N2); details: Bristol N2 (wild type), Caenorhabditis elegans, in vivo
[8] = system: mitochondrial respiratory chain complex I; assay type: biochemical, rat; details: at 100μM
[9] = system: Caenorhabditis elegans (Bristol N2); assay: C. elegans larval development and growth assay
[10] = system: mitochondrial respiratory chain complex IV; assay type: biochemical, rat
[11] = system: mitochondrial respiratory chain complex III; assay type: biochemical, rat
HepG2 cells [12] = assay: Intracellular ATP content (cell viability) assay; assay type: cell-based, human; details: Homo sapiens, HepG2, 40 h
[13] = system: isolated rat liver mitochondria; assay: Oxygen consumption, Clark-type oxygen electrode; assay type: biochemical
hNSC = assay: MMP assay in human neural stem cells (hNSC); assay type: cell-based; details: Homo sapiens, Neural stem cell, 1 h, read-out: hNSC IC50 (MMP)
[14] = system: p53 (p53-bla HCT-116 cells); assay: p53 β-lactamase reporter gene assay; assay type: cell-based, human; details: 16 h incubation; mean±SD of three experiments
[15] = target: T1, mitochondrial respiratory chain complex II (Rattus norvegicus, UniProt P21913+Q641Z9+Q6PCT8+Q920L2); assay: Respiratory chain complex II activity; assay type: biochemical; details: tested up to 100μM
T1 construct: Submitochondrial particles were prepared by subjecting the intact rat mitochondria, isolated as described above, to three successive freeze–thaw cycles; from tissue; host or cells: rat liver mitochondria (submitochondrial particles)
T1 sequence (Q920L2 35-656): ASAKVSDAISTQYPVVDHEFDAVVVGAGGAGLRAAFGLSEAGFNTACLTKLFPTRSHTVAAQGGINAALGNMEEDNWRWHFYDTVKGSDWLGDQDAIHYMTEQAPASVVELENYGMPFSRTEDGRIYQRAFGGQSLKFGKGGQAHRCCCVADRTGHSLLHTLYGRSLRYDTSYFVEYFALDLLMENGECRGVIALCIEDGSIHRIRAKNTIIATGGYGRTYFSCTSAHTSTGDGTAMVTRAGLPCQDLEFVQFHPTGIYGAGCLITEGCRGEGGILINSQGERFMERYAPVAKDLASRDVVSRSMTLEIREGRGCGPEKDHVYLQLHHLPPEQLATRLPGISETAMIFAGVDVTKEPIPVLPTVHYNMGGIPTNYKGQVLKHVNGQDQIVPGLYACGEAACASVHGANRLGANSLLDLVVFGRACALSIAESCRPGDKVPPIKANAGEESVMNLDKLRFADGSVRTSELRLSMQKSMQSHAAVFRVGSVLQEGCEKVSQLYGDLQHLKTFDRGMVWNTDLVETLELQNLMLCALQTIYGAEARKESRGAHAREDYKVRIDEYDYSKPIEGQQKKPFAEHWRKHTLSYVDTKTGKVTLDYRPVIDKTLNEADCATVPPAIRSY
T1 sequence (P21913 31-282): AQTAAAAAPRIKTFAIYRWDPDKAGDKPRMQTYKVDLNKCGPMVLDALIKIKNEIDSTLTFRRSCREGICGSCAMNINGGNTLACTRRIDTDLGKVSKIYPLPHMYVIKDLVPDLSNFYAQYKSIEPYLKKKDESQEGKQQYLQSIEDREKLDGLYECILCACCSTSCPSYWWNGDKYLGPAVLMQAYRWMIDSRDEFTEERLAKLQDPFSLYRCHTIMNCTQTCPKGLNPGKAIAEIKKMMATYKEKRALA
T1 sequence (Q641Z9 1-169): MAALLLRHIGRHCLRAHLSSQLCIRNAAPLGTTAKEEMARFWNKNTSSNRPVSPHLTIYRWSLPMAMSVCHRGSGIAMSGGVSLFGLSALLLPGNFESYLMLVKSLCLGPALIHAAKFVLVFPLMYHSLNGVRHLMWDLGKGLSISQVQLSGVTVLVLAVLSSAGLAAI
T1 sequence (Q6PCT8 57-159): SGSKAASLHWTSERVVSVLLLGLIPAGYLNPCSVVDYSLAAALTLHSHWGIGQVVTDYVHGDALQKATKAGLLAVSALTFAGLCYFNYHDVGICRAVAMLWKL

[16] = system: Caenorhabditis elegans strain PE255; assay: In vivo C. elegans ATP status assay
HepG2 cells [17] = assay: cells; details: Homo sapiens
[18] = system: Nrf2/ARE (ARE-bla HepG2 cells); assay: ARE β-lactamase reporter gene assay; assay type: cell-based, human; details: 16 h incubation; mean±SD of three experiments

CC[C@@H](C(=O)[C@@H](C)[C@@H](O)[C@H](C)CCc1ccc(C)c(O)c1C(=O)O)[C@H]1O[C@](CC)([C@H]2CC[C@](O)(CC)[C@H](C)O2)C[C@@H]1C [Lasalocid sodium, reference compound]
IC50 (rat primary hepatocytes [1]; 1 h, read-out: Rat hepatocytes IC50 (MMP)): 1.27 µM
IC50 (rat primary hepatocytes [1]; read-out: MMP assays IC50 (µM) Rat Hepatocytes): 1.3 ± 0.29 µM
ROS (HepG2) EC50 (HepG2 cells [2]): Inactive
Parkin recruitment [3]: Inactive
Complex V % inhibition (activity call) [4]: Inactive
MMP assays efficacy (%) Rat Hepatocytes (rat primary hepatocytes [5]): -105±1%
Rat hepatocytes (efficacy) (MMP) (rat primary hepatocytes [5]): 1.27±0.23 ( −95.6±2.35 ) %
MMP assays efficacy (%) qHTS-HepG2 (HepG2 cells [6]): -107±4%
IC50 (HepG2 cells [6]; read-out: MMP assays IC50 (µM), qHTS-HepG2): 1.14 ± 0.07 µM
LEC (lowest effect concentration), larval growth assay [7]: ≤ 10 µM
Complex I % inhibition [8]: 18.3±6.97 at 100μM %
EXT: mean difference in nematode size relative to plate controls ([9]; 0.5 µM): 0.01876
EXT: mean difference in nematode size relative to plate controls ([9]; 1 µM): -0.05443
EXT: mean difference in nematode size relative to plate controls ([9]; 5 µM): 0.2782
EXT: mean difference in nematode size relative to plate controls ([9]; 10 µM): 0.2152
EXT: mean difference in nematode size relative to plate controls ([9]; 25 µM): 0.9725
EXT: mean difference in nematode size relative to plate controls ([9]; 50 µM): 1.753
EXT: mean difference in nematode size relative to plate controls ([9]; 75 µM): 1.778
EXT: mean difference in nematode size relative to plate controls ([9]; 100 µM): 1.712
effect on larval growth (in words) ([9]; 0.5–100μM): inhibited
minimal effective concentration ([9]; Caenorhabditis elegans, read-out: LEC EXT: lowest effect concentration for extinction, a measure of nematode size): 5 µM
Complex IV % inhibition (activity call) [10]: Inactive
Complex III % inhibition (activity call) [11]: Inactive
IC50 (HepG2 cells [12]; read-out: ATP (HepG2, galactose) IC50): 35400 nM
IC50 (HepG2 cells [12]; read-out: ATP (HepG2, glucose) IC50): 30700 nM
Potential Mechanism [13]: Uncoupler + Inhibitor
I-ADP, % of control (O2 consumption rate) ([13]; 0.032 µM): 102 (33.0) % of control
I-sub, % of control (O2 consumption rate) ([13]; 0.032 µM): 114 (12.4) % of control
II-ADP, % of control (O2 consumption rate) ([13]; 0.032 µM): 87 (52.0) % of control
II-sub, % of control (O2 consumption rate) ([13]; 0.032 µM): 98 (20.1) % of control
I-ADP, % of control (O2 consumption rate) ([13]; 0.16 µM): 105 (34.0) % of control
I-sub, % of control (O2 consumption rate) ([13]; 0.16 µM): 118 (12.9) % of control
II-ADP, % of control (O2 consumption rate) ([13]; 0.16 µM): 72 (43.1) % of control
II-sub, % of control (O2 consumption rate) ([13]; 0.16 µM): 107 (22.1) % of control
I-ADP, % of control (O2 consumption rate) ([13]; 0.8 µM): 90 (29.2) % of control
I-sub, % of control (O2 consumption rate) ([13]; 0.8 µM): 120 (13.1) % of control
II-ADP, % of control (O2 consumption rate) ([13]; 0.8 µM): 57 (34.1) % of control
II-sub, % of control (O2 consumption rate) ([13]; 0.8 µM): 115 (23.6) % of control
I-ADP, % of control (O2 consumption rate) ([13]; 4 µM): 81 (26.3) % of control
I-sub, % of control (O2 consumption rate) ([13]; 4 µM): 164 (17.9) % of control
II-ADP, % of control (O2 consumption rate) ([13]; 4 µM): 60 (35.9) % of control
II-sub, % of control (O2 consumption rate) ([13]; 4 µM): 151 (31.2) % of control
I-ADP, % of control (O2 consumption rate) ([13]; 20 µM): 107 (34.7) % of control
I-sub, % of control (O2 consumption rate) ([13]; 20 µM): 347 (37.8) % of control
II-ADP, % of control (O2 consumption rate) ([13]; 20 µM): 48 (28.6) % of control
II-sub, % of control (O2 consumption rate) ([13]; 20 µM): 160 (33.0) % of control
I-ADP, % of control (O2 consumption rate) ([13]; 100 µM): 16 (8.1) % of control
I-sub, % of control (O2 consumption rate) ([13]; 100 µM): 32 (6.9) % of control
II-ADP, % of control (O2 consumption rate) ([13]; 100 µM): 20 (11.6) % of control
II-sub, % of control (O2 consumption rate) ([13]; 100 µM): 39 (13.7) % of control
IC50 (hNSC): 540 nM
p53 (HCT-116) EC50 [14]: Inactive
Complex II % inhibition (activity call) [15]: Inactive
LUM: mean difference in luminescence (ATP content) relative to plate controls ([16]; 0.5 µM): -0.09691
LUM: mean difference in luminescence (ATP content) relative to plate controls ([16]; 1 µM): 0.04489
LUM: mean difference in luminescence (ATP content) relative to plate controls ([16]; 5 µM): 0.262
LUM: mean difference in luminescence (ATP content) relative to plate controls ([16]; 10 µM): 0.184
LUM: mean difference in luminescence (ATP content) relative to plate controls ([16]; 25 µM): 0.7982
LUM: mean difference in luminescence (ATP content) relative to plate controls ([16]; 50 µM): 0.8669
LUM: mean difference in luminescence (ATP content) relative to plate controls ([16]; 75 µM): 1.247
LUM: mean difference in luminescence (ATP content) relative to plate controls ([16]; 100 µM): 1.4191
effect on ATP content (in words) ([16]; 0.5–100μM): inhibited
minimal effective concentration ([16]; Caenorhabditis elegans, read-out: LEC LUM: lowest effect concentration for luminescence, a measure of nematode ATP content): 25 µM
IC50 (HepG2 cells [17]; HepG2, 1 h, read-out: HepG2 IC50 Galactose (MMP)): 1.58 µM
IC50 (HepG2 cells [17]; HepG2, 1 h, read-out: HepG2 IC50 Glucose (MMP)): 1.54 µM
IC50 (HepG2 cells [17]; HepG2, read-out: MMP assays IC50 (µM) HepG2): 1.38 µM
Emax (HepG2 cells [17]; HepG2, read-out: MMP assays efficacy (%) HepG2): 99%
ARE (HepG2) EC50 [18]: Inactive
